Target: T1, glucocorticoid receptor (Homo sapiens, UniProt P04150)
T1 construct: expressed in transfected cells
T1 sequence (P04150 524-758 limits assumed): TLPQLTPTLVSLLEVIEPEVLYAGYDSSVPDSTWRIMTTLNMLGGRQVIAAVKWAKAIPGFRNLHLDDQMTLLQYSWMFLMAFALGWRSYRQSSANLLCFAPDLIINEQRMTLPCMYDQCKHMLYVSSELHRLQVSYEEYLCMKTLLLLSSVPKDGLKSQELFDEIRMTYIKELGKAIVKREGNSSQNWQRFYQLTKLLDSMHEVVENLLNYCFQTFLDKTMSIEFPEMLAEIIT
Test: Agonistic mode of action on the glucocorticoid receptor (CHO-Gal4/GR luciferase reporter cell line)
Type: cell-based
Conditions: range class observed in the agonistic assay or the antagonistic assay (CHO-Gal4/GR reporter cells); table does not say which mode applies per example
Procedure, shortened: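 CHO cells stably carrying GAL4 DBD–GR ligand-binding-domain fusion and GAL4-UAS firefly luciferase reporter, 5000 cells/well grown 24 h, then compounds added in Opti-MEM at 8 half-log concentrations from 10 μM to 0.003 μM (0.5% DMSO), quadruplicates. Agonist-induced luminescence read on FLIPR Tetra; EC50 calculated.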

IC50 or EC50 (agonist or antagonist mode not specified) | SMILES
100 to 1000 nM | CCc1c(-c2cc(F)cc3c2cnn3CCO)c(F)cc2c1-n1c(C)nnc1C(C)(C)N2 [Example 45, 2-[4-(9-Ethyl-7-fluoro-1,4,4-trimethyl-5H-[1,2,4]triazolo[4,3-a]quinoxalin-8-yl)-6-fluoro-1H-indazol-1-yl]-ethanol]
100 to 1000 nM | Cc1c[nH]c2c(-c3c(Cl)cc4c(c3F)-n3c(C)nnc3C(C)(C)N4)cccc12 [Example 272, 7-Chloro-9-fluoro-1,4,4-trimethyl-8-(3-methyl-1H-indol-7-yl)-5H-[1,2,4]triazolo[4,3-a]quinoxaline]
< 100 nM | Cc1c[nH]c2c(-c3ccc4c(c3C(F)(F)F)-n3c(C)nnc3C(C)(C)N4)cc(F)cc12 [Example 507, 8-(5-Fluoro-3-methyl-1H-indol-7-yl)-1,4,4-trimethyl-9-(trifluoro-methyl)-5H-[1,2,4]triazolo[4,3-a] quinoxaline]
100 to 1000 nM | CCc1nnc2n1-c1c(cc(F)c(-c3cc(F)cc4c3ccn4CC3CC3)c1C)NC2(C)C [Example 35, 8-(1-(cyclopropylmethyl)-6-fluoro-1H-indol-4-yl)-1-ethyl-7-fluoro-4,4,9-trimethyl-4,5-dihydro-[1,2,4]triazolo[4,3-a]quinoxaline]
100 to 1000 nM | COc1c(-c2cccc3c2ccn3S(C)(=O)=O)c(F)cc2c1-n1c(C)nnc1C(C)(C)N2 [Example 248, 7-Fluoro-9-methoxy-1,4,4-trimethyl-8-(1-methylsulfonyl-1H-indol-4-yl)-5H-[1,2,4]triazolo[4,3-a]quinoxaline]
< 100 nM | Cc1c[nH]c2c(-c3c(F)cc4c(c3C(F)(F)F)-n3c(C)nnc3C(C)(C)N4)cccc12 [Example 29, 7-fluoro-1,4,4-trimethyl-8-(3-methyl-1H-indol-7-yl)-9-(trifluoromethyl)-4,5-dihydro-[1,2,4]triazolo[4,3-a]quinoxaline]
100 to 1000 nM | COCCn1ccc2c(-c3c(F)cc4c(c3C(F)F)-n3c(C)nnc3C(C)(C)N4)cccc21 [Example 292, 9-(Difluoro-methyl)-7-fluoro-8-[1-(2-methoxy-ethyl)-1H-indol-4-yl]-1,4,4-trimethyl-5H-[1,2,4]triazolo[4,3-a]quinoxaline]
< 100 nM | CCS(=O)(=O)n1ccc2c(-c3c(F)cc4c(c3C(F)F)-n3c(C)nnc3C(C)(C)N4)cccc21 [Example 461, 9-(Difluoro-methyl)-8-[1-(ethylsulfonyl)-1H-indol-4-yl]-7-fluoro-1,4,4-trimethyl-5H-[1,2,4] triazolo[4,3-a]quinoxaline]
100 to 1000 nM | Cc1nnc2n1-c1c(ccc(-c3cc(F)cc4c3ccn4C)c1C(F)(F)F)NC2(C)C [Example 522, 8-(6-Fluoro-1-methyl-1H-indol-4-yl)-1,4,4-trimethyl-9-(trifluoro-methyl)-5H-[1,2,4]triazolo[4,3-a] quinoxaline]
100 to 1000 nM | Cc1nnc2n1-c1c(cc(F)c(-c3ccc(Cl)c4[nH]ccc34)c1C(F)(F)F)NC2(C)C [Example 530, 8-(7-Chloro-1H-indol-4-yl)-7-fluoro-1,4,4-trimethyl-9-(trifluoromethyl)-5H-[1,2,4] triazolo[4,3-a]quinoxaline]
100 to 1000 nM | Cc1c(-c2cc(F)cc3c2ccn3CCO)ccc2c1-n1c(C)nnc1C(C)(C)N2 [Example 451, 2-[6-Fluoro-4-(1,4,4,9-tetramethyl-5H-[1,2,4]triazolo[4,3-a]quinoxalin-8-yl)-1H-indol-1-yl]-ethanol]
100 to 1000 nM | Cc1nnc2n1-c1c(cc(F)c(-c3cccc4c(C5CC5)c[nH]c34)c1C(F)(F)F)NC2(C)C [Example 87, 8-(3-cyclopropyl-1H-indol-7-yl)-7-fluoro-1,4,4-trimethyl-9-(trifluoromethyl)-4,5-dihydro-[1,2,4]triazolo[4,3-a]quinoxaline]
